Patent publication US10030006B2, “Coumarin based Hsp90 inhibitors with urea and ether substituents” (University of Kansas, priority 2013, dated 2018)
Where two headings read alike, the source gives them in different places.

Tests used:
Assay type in all cases: cell-based
[1] = system: SKBr3 (estrogen receptor negative, Her2 over-expressing breast cancer cells); assay: Anti-proliferation assay (MTS/PMS, 72 h), SKBr3; settings: Homo sapiens, SK-BR-3, Breast Cancer, read-out: IC50 SKBr3
[2] = system: MCF-7 (estrogen receptor positive breast cancer cells); assay: Anti-proliferation assay (MTS/PMS, 72 h), MCF-7; settings: Homo sapiens, MCF7, Breast Cancer, read-out: IC50 MCF-3
HCT-116 = assay: Anti-proliferation assay, HCT-116; settings: Homo sapiens, HCT-116
Summary of the method: (§1)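 Cells seeded at 2000/well, attached overnight, then exposed to varying compound concentrations (1% DMSO final) for 72 h at 37 °C, 5% CO2. Viable cells read by MTS/PMS; 1% DMSO wells set as 100% proliferation. IC50 from separate triplicate experiments.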

PC-3 = assay: Anti-proliferation assay, PC-3; settings: Homo sapiens, PC-3, Prostate Cancer
Summary of the method: as §1

A-549 = assay: Anti-proliferation assay, A-549; settings: Homo sapiens, A549
Summary of the method: as §1

MDA1986 = assay: Anti-proliferation assay, MDA1986; settings: MDA1986, HSNCC
Summary of the method: as §1

JMAR = assay: Anti-proliferation assay, JMAR; settings: JMAR, HSNCC
Summary of the method: as §1

MDAMB231 = assay: Anti-proliferation assay, MDAMB231; settings: Homo sapiens, MDA-MB-231, Tri-Neg
Summary of the method: as §1

DRO81-1 = assay: Anti-proliferation assay, DRO81-1; settings: Thyroid
Summary of the method: as §1

BCPAP = assay: Anti-proliferation assay, BCPAP; settings: Homo sapiens, BCPAP, Thyroid
Description: Cells were maintained in a 1:1 mixture of Advanced DMEM/F12 (Gibco) supplemented with non-essential amino acids, L-glutamine (2 mM), streptomycin (500 μg/mL), penicillin (100 units/mL), and 10% FBS. Cells were grown to confluence in a humidified atmosphere (37° C., 5% CO2), seeded (2000/well, 100 μL) in 96-well plates, and allowed to attach overnight. Compound at varying concentrations in DMSO (1% DMSO final concentration) was added, and cells were returned to the incubator for 72 h. At 72 h, the number of viable cells was determined using an MTS/PMS cell proliferation kit (Promega) per the manufacturer's instructions. Cells incubated in 1% DMSO were used at 100% proliferation, and values were adjusted accordingly. IC50 values were calculated from separate experiments performed in triplicate using GraphPad Prism.

MRC5 = assay: Anti-proliferation assay, MRC5 (normal); settings: Homo sapiens
Summary of the method: as §1

HMLE = assay: Anti-proliferation assay, HMLE (normal); settings: HMLE
Summary of the method: as §1

[3] = Table 6, substituted phenyl ureas
[4] = MRC5, Table 6, substituted phenyl ureas
[5] = Table 7, prenylated phenyl ureas
[6] = MRC5, Table 7, prenylated phenyl ureas

Row | Compound | IC50 [1, 3] [nM] | IC50 [2, 3] [nM] | IC50 (HCT-116; [3]) [nM] | IC50 (PC-3; [3]) [nM] | IC50 (A-549; [3]) [nM] | IC50 (MDA1986; [3]) [nM] | IC50 (JMAR; [3]) [nM] | IC50 (MDAMB231; [3]) [nM] | IC50 (DRO81-1; [3]) [nM] | IC50 (BCPAP; [3]) [nM] | IC50 (MRC5; [4]) [nM] | IC50 (HMLE; [3]) [nM] | other results
1 | COc1cc(NC(=O)Nc2cc3ccc(OC4CCN(C)CC4)c(C)c3oc2=O)cc(OC)c1OC [3,4,5-trimethoxyl, 1-(8-methyl-7-((1-methylpiperidin-4-yl)oxy)-2-oxo-2H-chromen-3-yl)-3-(3,4,5-trimethoxyphenyl)urea] | 4260 | 1300 | 209000 | 4500 | 13000 | 9100 | 1700 | 2900 | 14700 | 1320 | > 25000 | > 25000 | –
2 | CC(=O)Oc1ccc(NC(=O)Nc2cc3ccc(OC4CCN(C)CC4)c(C)c3oc2=O)cc1CC=C(C)C [OAc, 4-(3-(8-methyl-7-((1-methylpiperidin-4-yl)oxy)-2-oxo-2H-chromen-3-yl)ureido)-2-(3-methylbut-2-en-1-yl)phenyl acetate] | – | – | – | – | – | – | – | – | – | – | – | – | IC50 [1, 5]: 540 nM; IC50 [2, 5]: 490 nM; IC50 (HCT-116; [5]): 340 nM; IC50 (PC-3; [5]): 380 nM; IC50 (A-549; [5]): 380 nM; IC50 (MDA1986; [5]): 1320 nM; IC50 (JMAR; [5]): 870 nM; IC50 (MDAMB231; [5]): 750 nM; IC50 (DRO81-1; [5]): 530 nM; IC50 (BCPAP; [5]): 129 nM; IC50 (MRC5; [6]): 1800 nM; IC50 (HMLE; [5]): 7200 nM
3 | COc1ccc(NC(=O)Nc2cc3ccc(OC4CCN(C)CC4)c(C)c3oc2=O)cc1CC=C(C)C [OMe, 1-(4-methoxy-3-(3-methylbut-2-en-1-yl)phenyl)-3-(8-methyl-7-((1-methylpiperidin-4-yl)oxy)-2-oxo-2H-chromen-3-yl)urea] | – | – | – | – | – | – | – | – | – | – | – | – | IC50 [1, 5]: 510 nM; IC50 [2, 5]: 370 nM; IC50 (HCT-116; [5]): 300 nM; IC50 (PC-3; [5]): 230 nM; IC50 (A-549; [5]): 230 nM; IC50 (MDA1986; [5]): 850 nM; IC50 (JMAR; [5]): 800 nM; IC50 (MDAMB231; [5]): 830 nM; IC50 (DRO81-1; [5]): 210 nM; IC50 (BCPAP; [5]): 1340 nM; IC50 (MRC5; [6]): 2640 nM; IC50 (HMLE; [5]): 6500 nM
4 | COc1ccc(NC(=O)Nc2cc3ccc(OC4CCN(C)CC4)c(C)c3oc2=O)cc1-c1cccc(OC(C)=O)c1 [OMe, OAc, 2′-methoxy-5′-(3-(8-methyl-7-((1-methylpiperidin-4-yl)oxy)-2-oxo-2H-chromen-3-yl)ureido)-[1,1′-biphenyl]-3-yl acetate] | – | – | – | – | – | – | – | – | – | – | – | – | IC50 ([1]; Table 8, biphenyl ureas): 260 nM; IC50 ([2]; Table 8, biphenyl ureas): 270 nM; IC50 (HCT-116; Table 8, biphenyl ureas): 3390 nM; IC50 (PC-3; Table 8, biphenyl ureas): 1040 nM; IC50 (A-549; Table 8, biphenyl ureas): 540 nM; IC50 (MDA1986; Table 8, biphenyl ureas): 850 nM; IC50 (JMAR; Table 8, biphenyl ureas): 2200 nM; IC50 (MDAMB231; Table 8, biphenyl ureas): 390 nM; IC50 (DRO81-1; Table 8, biphenyl ureas): 260 nM; IC50 (BCPAP; Table 8, biphenyl ureas): 16 nM; IC50 (MRC5; MRC5, Table 8, biphenyl ureas): 3100 nM; IC50 (HMLE; Table 8, biphenyl ureas): 1000 nM
5 | COc1ccc(NC(=O)Nc2cc3ccc(OC4CCN(C)CC4)c(C)c3oc2=O)cc1-c1cccc(O)c1 [OMe, OH, 1-(3′-hydroxy-6-methoxy-[1,1′-biphenyl]-3-yl)-3-(8-methyl-7-((1-methylpiperidin-4-yl)oxy)-2-oxo-2H-chromen-3-yl)urea] | – | – | – | – | – | – | – | – | – | – | – | – | IC50 ([1]; Table 8, biphenyl ureas): 390 nM; IC50 ([2]; Table 8, biphenyl ureas): 290 nM; IC50 (HCT-116; Table 8, biphenyl ureas): 420 nM; IC50 (PC-3; Table 8, biphenyl ureas): 600 nM; IC50 (A-549; Table 8, biphenyl ureas): 410 nM; IC50 (MDA1986; Table 8, biphenyl ureas): 2800 nM; IC50 (JMAR; Table 8, biphenyl ureas): 960 nM; IC50 (MDAMB231; Table 8, biphenyl ureas): 95 nM; IC50 (DRO81-1; Table 8, biphenyl ureas): 1200 nM; IC50 (BCPAP; Table 8, biphenyl ureas): 1940 nM; IC50 (MRC5; MRC5, Table 8, biphenyl ureas): 9800 nM; IC50 (HMLE; Table 8, biphenyl ureas): 3700 nM
6 | COc1cccc(-c2cc(NC(=O)Nc3cc4ccc(OC5CCN(C)CC5)c(C)c4oc3=O)ccc2OC)c1 [OMe, OMe, 1-(3′,6-dimethoxy-[1,1′-biphenyl]-3-yl)-3-(8-methyl-7-((1-methylpiperidin-4-yl)oxy)-2-oxo-2H-chromen-3-yl)urea] | – | – | – | – | – | – | – | – | – | – | – | – | IC50 ([1]; Table 8, biphenyl ureas): 170 nM; IC50 ([2]; Table 8, biphenyl ureas): 200 nM; IC50 (HCT-116; Table 8, biphenyl ureas): 460 nM; IC50 (PC-3; Table 8, biphenyl ureas): 470 nM; IC50 (A-549; Table 8, biphenyl ureas): 470 nM; IC50 (MDA1986; Table 8, biphenyl ureas): 1390 nM; IC50 (JMAR; Table 8, biphenyl ureas): 500 nM; IC50 (MDAMB231; Table 8, biphenyl ureas): 610 nM; IC50 (DRO81-1; Table 8, biphenyl ureas): 480 nM; IC50 (BCPAP; Table 8, biphenyl ureas): 390 nM; IC50 (MRC5; MRC5, Table 8, biphenyl ureas): 4300 nM; IC50 (HMLE; Table 8, biphenyl ureas): 1600 nM
7 | CCc1cccc(NC(=O)Nc2cc3ccc(OC4CCN(C)CC4)c(C)c3oc2=O)c1 [m-CH2CH3, 1-(3-ethylphenyl)-3-(8-methyl-7-((1-methylpiperidin-4-yl)oxy)-2-oxo-2H-chromen-3-yl)urea] | 440 | 500 | 340 | 410 | 400 | 1320 | 630 | 1900 | 670 | 5590 | 5300 | > 25000 | –
8 | Cc1cccc(NC(=O)Nc2cc3ccc(OC4CCN(C)CC4)c(C)c3oc2=O)c1 [m-CH3, 1-(8-methyl-7-((1-methylpiperidin-4-yl)oxy)-2-oxo-2H-chromen-3-yl)-3-(m-tolyl)urea] | 840 | 550 | 1110 | 840 | 1210 | 2020 | 1800 | 3500 | 540 | 3540 | 4300 | 3100 | –
9 | CC(=O)c1cccc(NC(=O)Nc2cc3ccc(OC4CCN(C)CC4)c(C)c3oc2=O)c1 [m-COCH3, 1-(3-acetylphenyl)-3-(8-methyl-7-((1-methylpiperidin-4-yl)oxy)-2-oxo-2H-chromen-3-yl)urea] | 830 | 1170 | 720 | 1230 | 540 | 21000 | 15700 | 610 | 13600 | 270 | > 25000 | 1900 | –
10 | CC(=O)Oc1cccc(NC(=O)Nc2cc3ccc(OC4CCN(C)CC4)c(C)c3oc2=O)c1 [m-OAc, 3-(3-(8-methyl-7-((1-methylpiperidin-4-yl)oxy)-2-oxo-2H-chromen-3-yl)ureido)phenyl acetate] | 2370 | 1410 | 12100 | 1910 | 1910 | 6820 | 3850 | 4100 | 2700 | 2820 | > 25000 | 13600 | –
11 | Cc1c(OC2CCN(C)CC2)ccc2cc(NC(=O)Nc3cccc(O)c3)c(=O)oc12 [m-OH, 1-(3-hydroxyphenyl)-3-(8-methyl-7-((1-methylpiperidin-4-yl)oxy)-2-oxo-2H-chromen-3-yl)urea] | 2370 | 2730 | > 100000 | 10900 | 10900 | 21900 | 6500 | 1300 | > 25000 | 270 | > 25000 | 11900 | –
12 | CCc1ccc(NC(=O)Nc2cc3ccc(OC4CCN(C)CC4)c(C)c3oc2=O)cc1 [p-CH2CH3, 1-(4-ethylphenyl)-3-(8-methyl-7-((1-methylpiperidin-4-yl)oxy)-2-oxo-2H-chromen-3-yl)urea] | 580 | 560 | 530 | 410 | 490 | 1400 | 1030 | 690 | 290 | 4360 | 2600 | 1200 | –
13 | Cc1c(OC2CCN(C)CC2)ccc2cc(NC(=O)Nc3ccc(N(C)C)cc3)c(=O)oc12 [p-N-dimethylamine, 1-(4-(dimethylamino)phenyl)-3-(8-methyl-7-((1-methylpiperidin-4-yl)oxy)-2-oxo-2H-chromen-3-yl)urea] | 1110 | 1000 | 9340 | 7960 | 2700 | 17500 | 770 | 1400 | > 25000 | 740 | 14400 | 960 | –
